How the values were obtained:
crabgrass = assay: Test B pre/postemergence crabgrass; type: in vivo, Digitaria sanguinalis; conditions: Preemergence
In short: (§1)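 Response is a visual 0-to-10 score relative to untreated plants, where 0 means no effect and 10 means complete control, taken twelve to sixteen days after application. Treatments went onto soil at planting and onto foliage of 1- to 4-leaf plants, using a surfactant-containing non-phytotoxic solvent.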

cocklebur = assay: Test B pre/postemergence cocklebur; type: in vivo, Xanthium strumarium; conditions: Preemergence
In short: as §1

blackgrass = assay: Test B pre/postemergence blackgrass; type: in vivo, Alopecurus myosuroides; conditions: Preemergence
In short: as §1

wheat = assay: Test B pre/postemergence wheat; type: in vivo, Triticum aestivum; conditions: Preemergence, scale of 0 to 10 where 0 is no effect and 10 is complete control
In short: as §1

rape = assay: Test B pre/postemergence rape; type: in vivo, Brassica napus; conditions: Preemergence, scale of 0 to 10 where 0 is no effect and 10 is complete control
In short: as §1

bedstraw = assay: Test B pre/postemergence bedstraw; type: in vivo, Galium aparine; conditions: Preemergence
In short: as §1

giant foxtail = assay: Test B pre/postemergence giant foxtail; type: in vivo, Setaria faberii; conditions: Preemergence, scale of 0 to 10 where 0 is no effect and 10 is complete control
In short: as §1

wild oat = assay: Test B pre/postemergence wild oat; type: in vivo, Avena fatua; conditions: Preemergence, scale of 0 to 10 where 0 is no effect and 10 is complete control
In short: as §1

sugar beet = assay: Test B pre/postemergence sugar beet; type: in vivo, Beta vulgaris; conditions: Preemergence, scale of 0 to 10 where 0 is no effect and 10 is complete control
In short: as §1

pigweed = assay: Test B pre/postemergence pigweed; type: in vivo, Amaranthus retroflexus; conditions: Preemergence, scale of 0 to 10 where 0 is no effect and 10 is complete control
In short: as §1

corn = assay: Test B pre/postemergence corn; type: in vivo, Zea mays; conditions: Preemergence
In short: as §1

surinam grass = assay: Test B pre/postemergence surinam grass; type: in vivo, Brachiaria decumbens; conditions: Preemergence
In short: as §1

morningglory = assay: Test B pre/postemergence morningglory; type: in vivo, Ipomoea hederacea; conditions: Preemergence, scale of 0 to 10 where 0 is no effect and 10 is complete control
In short: as §1

velvetleaf = assay: Test B pre/postemergence velvetleaf; type: in vivo, Abutilon theophrasti; conditions: Preemergence, scale of 0 to 10 where 0 is no effect and 10 is complete control
In short: as §1

soybean = assay: Test B pre/postemergence soybean; type: in vivo, Glycine max; conditions: Preemergence, scale of 0 to 10 where 0 is no effect and 10 is complete control
In short: as §1

purple nutsedge = assay: Test B pre/postemergence purple nutsedge; type: in vivo, Cyperus rotundus; conditions: Preemergence, scale of 0 to 10 where 0 is no effect and 10 is complete control
In short: as §1

[1] = Rate 62 g/ha, scale of 0 to 10 where 0 is no effect and 10 is complete control
[2] = Rate 125 g/ha, scale of 0 to 10 where 0 is no effect and 10 is complete control
[3] = Rate 250 g/ha, scale 0 to 10 (0 no effect, 10 complete control)
[4] = Rate 500 g/ha, scale of 0 to 10 where 0 is no effect and 10 is complete control

With `CCn1ncc(Cn2c(=O)on(C(=O)N(c3ccc(Cl)cc3)C(C)C)c2=O)c1Cl` [Compound 684] the “Crabgrass plant response rating” value (crabgrass; [1]) was 3, the “Plant response rating, Crabgrass” value (crabgrass; [2]) was 7 and the “Plant response rating, Crabgrass” value (crabgrass; [3]) was 9. The “Cocklebur plant response rating” value (cocklebur; [1]) was 0, the “Plant response rating, Cocklebur” value (cocklebur; [2]) was 0 and the “Plant response rating, Cocklebur” value (cocklebur; [3]) was 0. The “Plant response rating, Cocklebur” value (cocklebur; [4]) was 0, the “Blackgrass plant response rating” value (blackgrass; [1]) was 1 and the “Plant response rating, Blackgrass” value (blackgrass; [2]) was 3. The “Plant response rating, Blackgrass” value (blackgrass; [3]) was 4, the “Plant response rating, Blackgrass” value (blackgrass; [4]) was 7 and the “Wheat plant response rating” value (wheat; Rate 62 g/ha) was 0. The “Plant response rating, Wheat” value (wheat; Rate 125 g/ha) was 0, the “Rape plant response rating” value (rape; Rate 62 g/ha) was 0 and the “Plant response rating, Rape” value (rape; Rate 125 g/ha) was 0. The “Bedstraw plant response rating” value (bedstraw; [1]) was 0, the “Plant response rating, Bedstraw” value (bedstraw; [2]) was 0 and the “Plant response rating, Bedstraw” value (bedstraw; [3]) was 0. The “Plant response rating, Bedstraw” value (bedstraw; [4]) was 0, the “Giant foxtail plant response rating” value (giant foxtail; Rate 62 g/ha) was 7 and the “Plant response rating, Giant foxtail” value (giant foxtail; Rate 125 g/ha) was 9. The “Wild oats plant response rating” value (wild oat; Rate 62 g/ha) was 0, the “Plant response rating, Wild oats” value (wild oat; Rate 125 g/ha) was 0 and the “Sugarbeets plant response rating” value (sugar beet; Rate 62 g/ha) was 0. For the same molecule, the “Plant response rating, Sugarbeets” value (sugar beet; Rate 125 g/ha) was 0, the “Redroot pigweed plant response rating” value (pigweed; Rate 62 g/ha) was 0 and the “Plant response rating, Redroot pigweed” value (pigweed; Rate 125 g/ha) was 0. The “Corn plant response rating” value (corn; [1]) was 0, the “Plant response rating, Corn” value (corn; [2]) was 0 and the “Plant response rating, Corn” value (corn; [3]) was 0. The “B. signalgrass plant response rating” value (surinam grass; [1]) was 0, the “Plant response rating, B. signalgrass” value (surinam grass; [2]) was 0 and the “Plant response rating, B. signalgrass” value (surinam grass; [3]) was 4. The “Plant response rating, B. signalgrass” value (surinam grass; [4]) was 5, the “Morningglory plant response rating” value (morningglory; Rate 62 g/ha) was 0 and the “Plant response rating, Morningglory” value (morningglory; Rate 125 g/ha) was 0. The “Velvetleaf plant response rating” value (velvetleaf; Rate 62 g/ha) was 0, the “Plant response rating, Velvetleaf” value (velvetleaf; Rate 125 g/ha) was 0 and the “Soybean plant response rating” value (soybean; Rate 62 g/ha) was 0. The “Plant response rating, Soybean” value (soybean; Rate 125 g/ha) was 0, the “Nutsedge plant response rating” value (purple nutsedge; Rate 62 g/ha) was 0 and the “Plant response rating, Nutsedge” value (purple nutsedge; Rate 125 g/ha) was 0.

— US6737383B1, “Herbicidal oxadiazolidines” (priority 1999, dated 2004)
